Experimental data reported in PubChem BioAssay (NCI).
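Five concentrations, 48 hours, 96-well plates. At the GI50, growth is halved. Definition used: TGI = concentration required for complete inhibition of growth.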

Experiments:
Assay in all cases: NCI-60 cell line screen, 48 h; in the data active means GI50 below about 0.43 µM; inactive means the rest
NCI-H226 lung = system: NCI-H226 lung
NCI/ADR-RES ovarian = system: NCI/ADR-RES ovarian
SNB-19 CNS = system: SNB-19 CNS
LOX IMVI melanoma = system: LOX IMVI melanoma
COLO 205 colon = system: COLO 205 colon
OVCAR-4 ovarian = system: OVCAR-4 ovarian
HOP-62 NSCLC = system: HOP-62 NSCLC
NCI-H522 lung = system: NCI-H522 lung
EKVX NSCLC = system: EKVX NSCLC
BT-549 breast = system: BT-549 breast
SK-MEL-2 melanoma = system: SK-MEL-2 melanoma
SNB-75 CNS = system: SNB-75 CNS
KM12 colon = system: KM12 colon
SK-MEL-28 melanoma = system: SK-MEL-28 melanoma
SW-620 colon = system: SW-620 colon
SN12C renal = system: SN12C renal
SF-295 CNS = system: SF-295 CNS
CAKI-1 renal = system: CAKI-1 renal
MOLT-4 leukemia = system: MOLT-4 leukemia
SK-MEL-5 melanoma = system: SK-MEL-5 melanoma
U251 CNS = system: U251 CNS
SF-268 CNS = system: SF-268 CNS
A498 renal = system: A498 renal
A549 NSCLC = system: A549 NSCLC
SK-OV-3 ovarian = system: SK-OV-3 ovarian
RPMI-8226 leukemia = system: RPMI-8226 leukemia
HCC-2998 colon = system: HCC-2998 colon
SF-539 CNS = system: SF-539 CNS
CCRF-CEM leukemia = system: CCRF-CEM leukemia
SR leukemia = system: SR leukemia
MCF7 breast = system: MCF7 breast
OVCAR-3 ovarian = system: OVCAR-3 ovarian
786-0 renal = system: 786-0 renal
MDA-MB-435 = system: MDA-MB-435
IGROV1 ovarian = system: IGROV1 ovarian
MDA-MB-231 breast = system: MDA-MB-231 breast
M14 melanoma = system: M14 melanoma
DU-145 prostate = system: DU-145 prostate
K-562 leukemia = system: K-562 leukemia
UACC-62 melanoma = system: UACC-62 melanoma
PC-3 prostate = system: PC-3 prostate
HS 578T breast = system: HS 578T breast
HCT-116 colon = system: HCT-116 colon
OVCAR-5 ovarian = system: OVCAR-5 ovarian
MALME-3M melanoma = system: MALME-3M melanoma
HL-60(TB) leukemia = system: HL-60(TB) leukemia
TK-10 renal = system: TK-10 renal
HT29 colon = system: HT29 colon
HOP-92 NSCLC = system: HOP-92 NSCLC
OVCAR-8 ovarian = system: OVCAR-8 ovarian
NCI-H460 lung = system: NCI-H460 lung
UO-31 renal = system: UO-31 renal
ACHN renal = system: ACHN renal
UACC-257 melanoma = system: UACC-257 melanoma
HCT-15 colon = system: HCT-15 colon
RXF 393 renal = system: RXF 393 renal
NCI-H23 lung = system: NCI-H23 lung

Fc1cccc(-n2ccc(-c3ccccc3)nc2=S)c1
30.4 µM: TGI (ACHN renal)
61.3 µM: TGI (HCT-116 colon)
64.5 µM: TGI (NCI-H522 lung)
36 µM: TGI (TK-10 renal)
14.3 µM: TGI (CAKI-1 renal)
37.4 µM: TGI (HS 578T breast)
38.9 µM: TGI (SF-539 CNS)
36.5 µM: TGI (NCI-H226 lung)
> 100 µM: TGI (OVCAR-4 ovarian) | TGI (HOP-62 NSCLC) | TGI (SK-MEL-2 melanoma) | TGI (SK-MEL-28 melanoma) | TGI (SW-620 colon) | TGI (MOLT-4 leukemia) | TGI (U251 CNS) | TGI (SF-268 CNS) | TGI (RPMI-8226 leukemia) | TGI (CCRF-CEM leukemia) | TGI (SR leukemia) | TGI (MDA-MB-435) | TGI (MDA-MB-231 breast) | TGI (M14 melanoma) | TGI (K-562 leukemia) | TGI (UACC-62 melanoma) | TGI (OVCAR-5 ovarian) | TGI (MALME-3M melanoma) | TGI (HL-60(TB) leukemia) | TGI (HT29 colon) | TGI (NCI-H460 lung) | TGI (UACC-257 melanoma)
41.2 µM: TGI (MCF7 breast)
36.1 µM: TGI (HCT-15 colon)
> 57.7 µM: TGI (OVCAR-8 ovarian)
26 µM: TGI (BT-549 breast)
66.7 µM: TGI (DU-145 prostate)
3.82 µM: TGI (COLO 205 colon)
39.4 µM: TGI (PC-3 prostate)
> 59.7 µM: TGI (SNB-19 CNS)
44.1 µM: TGI (786-0 renal)
29.5 µM: TGI (LOX IMVI melanoma)
> 87.3 µM: TGI (A549 NSCLC)
> 70.6 µM: TGI (SNB-75 CNS)
30 µM: TGI (UO-31 renal) | TGI (RXF 393 renal)
41.4 µM: TGI (NCI/ADR-RES ovarian)
inactive: GI50 (NCI-H226 lung) 18.1 µM | GI50 (NCI/ADR-RES ovarian) 18.3 µM | GI50 (SNB-19 CNS) 12.9 µM | GI50 (LOX IMVI melanoma) 16.1 µM | GI50 (OVCAR-4 ovarian) 98.6 µM | GI50 (HOP-62 NSCLC) > 63.4 µM | GI50 (NCI-H522 lung) 22.7 µM | GI50 (EKVX NSCLC) 17.7 µM | GI50 (BT-549 breast) 10.4 µM | GI50 (SK-MEL-2 melanoma) > 100 µM | GI50 (SNB-75 CNS) 26.7 µM | GI50 (KM12 colon) 18.6 µM | GI50 (SK-MEL-28 melanoma) 71.9 µM | GI50 (SW-620 colon) > 100 µM | GI50 (SN12C renal) 3.01 µM | GI50 (SF-295 CNS) 44.1 µM | GI50 (CAKI-1 renal) 4.11 µM | GI50 (MOLT-4 leukemia) 54 µM | GI50 (SK-MEL-5 melanoma) 23.1 µM | GI50 (U251 CNS) 43.2 µM | GI50 (SF-268 CNS) 32.3 µM | GI50 (A498 renal) 17.2 µM | GI50 (A549 NSCLC) 31.5 µM | GI50 (SK-OV-3 ovarian) 1.59 µM | GI50 (RPMI-8226 leukemia) 47.1 µM | GI50 (HCC-2998 colon) 18.1 µM | GI50 (SF-539 CNS) 17.6 µM | GI50 (CCRF-CEM leukemia) > 85.3 µM | GI50 (SR leukemia) 53.6 µM | GI50 (MCF7 breast) 18.5 µM | GI50 (OVCAR-3 ovarian) 19 µM | GI50 (786-0 renal) 21.2 µM | GI50 (MDA-MB-435) 99.7 µM | GI50 (IGROV1 ovarian) 25.5 µM | GI50 (MDA-MB-231 breast) 27.9 µM | GI50 (M14 melanoma) 73 µM | GI50 (DU-145 prostate) 20.3 µM | GI50 (K-562 leukemia) 43 µM | GI50 (UACC-62 melanoma) > 54.6 µM | GI50 (PC-3 prostate) 17.5 µM | GI50 (HS 578T breast) 17.7 µM | GI50 (HCT-116 colon) 21.9 µM | GI50 (OVCAR-5 ovarian) > 94.4 µM | GI50 (MALME-3M melanoma) 65.3 µM | GI50 (HL-60(TB) leukemia) 94 µM | GI50 (TK-10 renal) 18.2 µM | GI50 (HT29 colon) 57.3 µM | GI50 (HOP-92 NSCLC) 0.862 µM | GI50 (OVCAR-8 ovarian) 26.6 µM | GI50 (NCI-H460 lung) > 100 µM | GI50 (UO-31 renal) 15.1 µM | GI50 (ACHN renal) 16.7 µM | GI50 (UACC-257 melanoma) 46.7 µM | GI50 (HCT-15 colon) 17.3 µM | GI50 (RXF 393 renal) 15.8 µM | GI50 (NCI-H23 lung) 15 µM
41.6 µM: TGI (HOP-92 NSCLC)
10.4 µM: TGI (SN12C renal)
40.6 µM: TGI (OVCAR-3 ovarian)
33.2 µM: TGI (NCI-H23 lung)
> 82.6 µM: TGI (SF-295 CNS)
33.4 µM: TGI (EKVX NSCLC) | TGI (HCC-2998 colon)
33.3 µM: TGI (A498 renal)
42.8 µM: TGI (KM12 colon)
> 62.2 µM: TGI (IGROV1 ovarian)
> 73.1 µM: TGI (SK-MEL-5 melanoma)
44.9 µM: TGI (SK-OV-3 ovarian)
